Measured values reported in patent US20230050846A1, “TREATMENT OF HEPATIC AND CARDIOVASCULAR DISORDERS” (LIFESEARCH, priority 2019, published 2023).
Peptide text beside a SMILES is read from it. * marks the point of attachment. Palmitoyl = CCCCCCCCCCCCCCCC(=O)*

Experiments:
[1] = Stability in PBS (LC-HRMS); type: physicochemical; settings: 4° C. and 37° C., 4 weeks
Method: Peptide of Formula (I) or peptide of Formula (II) were prepared at a concentration of 200 μg/mL in PBS or mixed with EDTA plasma or serum from human (Etablissement Frangais du Sang, EFS) or mouse (C57BL/6J, cardiac puncture). Aliquots from PBS samples (40 μL) were incubated at 4° C. or 37° C. for 0, 1, 2 and 4 weeks. Aliquots from plasma and serum samples (50 μL) were incubated at 4° C. or 37° C. for 0, 1, 2, 4, 6, 12, 24 h.
A mixed solution of peptides of formula (I) and (II) was constituted and serially diluted in PBS to obtain seven standard solutions, ranging from 200 μg/mL to 0.2 μg/mL. In parallel, a mixed solution of labelled peptides of Formula (I) and (II) (Thermo Scientific, Biopolymers Darmstadt, Germany) was prepared in PBS at 100 μg/mL. The mixed solution of labelled peptides (25 μL) was added to 25 μL of standard solutions as well as to PBS, plasma and serum samples. Acetonitrile (150 μL) was added to each sample to precipitate plasma/serum proteins. […] Peptides were analyzed according to their major exact m/z (i 5 ppm, Table 1) and each peptide signal was normalized with that of its labelled internal standard. Peptide concentrations were calculated using calibration curves plotted from standard solutions (linear regression, 1/x weighted, origin excluded).

[2] = tested on: LDLR knock-out mice; experiment: Biliary lipid secretions, gallbladder cannulation, dyslipidemic LDLR KO mice; type: in vivo, mouse; settings: dyslipidemic LDL KO mice, ip 25 mg/kg, 2 h
Method: Wild-type C57B/L6J male mice were purchased from Janvier Labs (Le Genest Saint Isle, France). LDLR knock-out mice (males, C57B/L6J background) were obtained from The Jackson Laboratory (Bar Harbor, Me., USA). Mice were caged in animal rooms under specific pathogen free conditions at the animal facility of Rangueil (Anexplo platform, US006, Toulouse, France) with a light/dark schedule of 12 h/12 h and were fed ad libitum with a normal chow diet (#V1535 R/M-H, Ssniff, Germany). […]
Depending of experiments, 8 weeks old mice were intraperitoneally injected with PBS, the peptide of formula (I), the peptide of formula (II) and SCR. […] Bile flow (expressed in μL/min/100 g of body weight) was determined gravimetrically assuming a density of 1 g/mL for bile. […]
For bile acid analysis, 1 μL of bile samples was diluted with 99 μL of milliQ water then incubated with the work reagent (6 mg NAD, 0.5 M hydrazine hydrate buffer, 0.05 M Na-pyrophosphate) for 4 min. The mix was then incubated with a start reagent (0.03 M Tris-EDTA; 0.3 U/mL 3-alpha-OH steroid dehydrogenase) and measured for 30 min, under excitation of 340/330 nm and emission of 440/420 nm. […] The mix was then incubated with a start reagent (1 M MOPS, pH 8, 50 U/mL Choline oxidase) and measured for 67.5 min, under excitation of 340/330 and emission of 440/40. […]

stability in PBS [1]	Compound	stimulation of biliary flux and biliary lipid secretion [2]
stable	CCCCCCCCCCCCCCCC(=O)NCCCC[C@H](NC(=O)[C@H](CCC(=O)O)NC(=O)[C@H](CCCNC(=N)N)NC(=O)[C@H](CO)NC(=O)[C@H](CCC(N)=O)NC(=O)[C@H](C)NC(=O)[C@H](CCCNC(=N)N)NC(=O)[C@H](Cc1ccccc1)NC(=O)[C@H](Cc1ccc(O)cc1)NC(=O)[C@H](CCCNC(=N)N)NC(=O)[C@H](CCC(=O)O)NC(=O)[C@H](CCC(=O)O)NC(=O)[C@H](CCC(=O)O)NC(=O)[C@H](C)NC(=O)[C@H](CCC(N)=O)NC(=O)[C@H](CCC(=O)O)NC(=O)[C@H](CCCNC(=N)N)NC(=O)[C@H](CCCCN)NC(=O)CNC(=O)[C@H](Cc1ccccc1)NC(=O)[C@H](C)NC(=O)CNC(=O)CNC(=O)[C@H](C)NC(=O)[C@H](CCC(=O)O)NC(=O)[C@H](CCCNC(=N)N)NC(=O)[C@@H](NC(=O)[C@H](CO)NC(=O)CNC(=O)[C@H](C)NC(=O)CNC(=O)[C@H](CCCNC(=N)N)NC(C)=O)[C@@H](C)CC)C(N)=O [peptide of formula (II), CH3CO-[SEQ ID NO: 1]-K-[palmitoyl]-NH2] (Ac-RGAGSIREAGGAFGKREQAEEERYFRAQSREK(Palmitoyl)-NH2)	maintained
stable	Ac-RGAGSIREAGGAFGKREQAEEERYFRAQSRE-NH2 [peptide of formula (I), CH3CO-[SEQ ID NO: 1]-NH2]	maintained
